Source: ChEMBL document CHEMBL3045789, “Tetracyclic spirooxindole blockers of hNaV1.7: activity in vitro and in CFA-induced inflammatory pain model” (Med Chem Res, 2013)
In brackets after ≈: the same amount, converted by molar mass. Activity calls are given as the source filed them. The rule behind the calls is not given here.

Tests used:
[1] = Solubility of the compound in phosphate buffered saline at pH 7.4; assay type: physicochemical
CYP3A4 = CYP3A4 (Homo sapiens, UniProt P08684); experiment: Inhibition of Homo sapiens (human) recombinant CYP3A4 at 10 uM by fluorogenic assay; assay type: ADME
[2] = target: Sodium channel protein type 9 subunit alpha (Homo sapiens, UniProt Q15858); experiment: Inhibition of Homo sapiens (human) NaV1.7 expressed in HEK293 cells assessed as decrease in [14C]guanidinium influx after 2 hr by liquid scintillation counting analysis; assay type: cell-based
Rattus norvegicus [3] = experiment: Analgesic activity in CFA-induced Rattus norvegicus (rat) inflammatory pain model assessed as reduction of mechanical allodynia at 10 mg/kg, po after 1 hr by von Frey test relative to vehicle-treated control; assay type: functional; set-up: scale not given: the % may be the effect or the level left
[4] = Clearance in Sprague-Dawley Rattus norvegicus (rat) at 1 mg/kg, iv; assay type: ADME, organism-based; set-up: dose 1 mg/kg, route intravenous; settings: in vivo
[5] = Oral bioavailability in Sprague-Dawley Rattus norvegicus (rat) at 10 mg/kg; assay type: ADME, organism-based; settings: in vivo
[6] = Volume of distribution at steady state in Sprague-Dawley Rattus norvegicus (rat) at 1 mg/kg, iv; assay type: ADME, organism-based; set-up: dose 1 mg/kg, route intravenous; settings: in vivo, read-out: Vdss
[7] = Terminal half life in Sprague-Dawley Rattus norvegicus (rat) at 1 mg/kg, iv; assay type: ADME, organism-based; set-up: dose 1 mg/kg, route intravenous; settings: in vivo, read-out: beta t1/2 (converted)
[8] = Tmax in Sprague-Dawley Rattus norvegicus (rat) at 10 mg/kg, po; assay type: ADME, organism-based; set-up: dose 10 mg/kg, route oral; settings: in vivo
[9] = AUClast in Sprague-Dawley Rattus norvegicus (rat) at 1 mg/kg, iv; assay type: ADME, organism-based; set-up: time 0 - last, dose 1 mg/kg, route intravenous; settings: plasma
[10] = Cmax in Sprague-Dawley Rattus norvegicus (rat) at 1 mg/kg, iv; assay type: ADME, organism-based; set-up: dose 1 mg/kg, route intravenous; settings: in vivo
[11] = AUClast in Sprague-Dawley Rattus norvegicus (rat) at 10 mg/kg, po; assay type: ADME, organism-based; set-up: time 0 - last, dose 10 mg/kg, route oral; settings: plasma
[12] = Cmax in Sprague-Dawley Rattus norvegicus (rat) at 10 mg/kg, po; assay type: ADME, organism-based; set-up: dose 10 mg/kg, route oral; settings: in vivo
[13] = Metabolic stability in Canis lupus familiaris (dog) hepatocytes assessed as compound remaining after 2 hr; assay type: ADME, cell-based, Hepatocyte; settings: read-out: Stability
[14] = Metabolic stability in Homo sapiens (human) hepatocytes assessed as compound remaining after 2 hr; assay type: ADME, cell-based, Hepatocyte; settings: read-out: Stability
[15] = Metabolic stability in Rattus norvegicus (rat) hepatocytes assessed as compound remaining after 2 hr; assay type: ADME, cell-based, Hepatocyte; settings: read-out: Stability
[16] = Apparent permeability across apical to basolateral side in Homo sapiens (human) Caco2 cells; assay type: ADME, cell-based; settings: Caco-2
[17] = Apparent permeability across basolateral to apical side in Homo sapiens (human) Caco2 cells; assay type: ADME, cell-based; settings: Caco-2
[18] = Cytotoxicity against Homo sapiens (human) HepG2 cells assessed as cell viability after 16 hr; assay type: cell-based; settings: read-out: Activity
[19] = Plasma protein binding in Rattus norvegicus (rat); assay type: ADME, cell-free; settings: read-out: PPB (converted)
hERG (KCNH2) = hERG (KCNH2) (Homo sapiens, UniProt Q12809); experiment: Inhibition of Homo sapiens (human) ERG expressed in HEK293 cells at 10 uM after 3 hr by rubidium efflux assay; assay type: cell-based; settings: HEK293 cells expressing human ERG
Cytochrome P450 3A4 = Cytochrome P450 3A4 (Homo sapiens, UniProt P08684); experiment: Inhibition of Homo sapiens (human) recombinant CYP3A4 by fluorogenic assay; assay type: ADME
Rattus norvegicus [20] = experiment: Analgesic activity in CFA-induced Rattus norvegicus (rat) inflammatory pain model assessed as reduction of mechanical allodynia at 10 mg/kg, ip after 1 hr by von Frey test; assay type: functional, organism-based; set-up: dose 10 mg/kg
[21] = Metabolic stability in Rattus norvegicus (rat) liver microsomes assessed as compound remaining after 30 min; assay type: ADME; settings: read-out: Stability
Rattus norvegicus [22] = experiment: Analgesic activity in CFA-induced Rattus norvegicus (rat) inflammatory pain model assessed as reduction of mechanical allodynia at 40 mg/kg, po after 1 hr by von Frey test; assay type: functional, organism-based; set-up: dose 40 mg/kg

Sequence of CYP3A4 (P08684 whole entry): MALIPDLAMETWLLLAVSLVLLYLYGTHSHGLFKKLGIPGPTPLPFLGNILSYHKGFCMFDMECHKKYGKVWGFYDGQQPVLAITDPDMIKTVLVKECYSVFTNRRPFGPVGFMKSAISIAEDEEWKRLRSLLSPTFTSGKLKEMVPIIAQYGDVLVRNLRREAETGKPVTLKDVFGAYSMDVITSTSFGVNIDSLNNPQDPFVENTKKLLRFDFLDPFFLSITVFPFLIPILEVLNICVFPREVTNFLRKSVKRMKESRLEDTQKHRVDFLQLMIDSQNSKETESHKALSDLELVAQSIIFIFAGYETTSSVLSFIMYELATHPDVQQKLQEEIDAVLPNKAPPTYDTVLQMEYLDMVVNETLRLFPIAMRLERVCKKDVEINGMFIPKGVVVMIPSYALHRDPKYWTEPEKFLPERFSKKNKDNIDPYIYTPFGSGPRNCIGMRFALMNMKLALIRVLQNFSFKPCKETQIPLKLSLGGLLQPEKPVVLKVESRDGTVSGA
Sequence of Sodium channel protein type 9 subunit alpha (Q15858 whole entry): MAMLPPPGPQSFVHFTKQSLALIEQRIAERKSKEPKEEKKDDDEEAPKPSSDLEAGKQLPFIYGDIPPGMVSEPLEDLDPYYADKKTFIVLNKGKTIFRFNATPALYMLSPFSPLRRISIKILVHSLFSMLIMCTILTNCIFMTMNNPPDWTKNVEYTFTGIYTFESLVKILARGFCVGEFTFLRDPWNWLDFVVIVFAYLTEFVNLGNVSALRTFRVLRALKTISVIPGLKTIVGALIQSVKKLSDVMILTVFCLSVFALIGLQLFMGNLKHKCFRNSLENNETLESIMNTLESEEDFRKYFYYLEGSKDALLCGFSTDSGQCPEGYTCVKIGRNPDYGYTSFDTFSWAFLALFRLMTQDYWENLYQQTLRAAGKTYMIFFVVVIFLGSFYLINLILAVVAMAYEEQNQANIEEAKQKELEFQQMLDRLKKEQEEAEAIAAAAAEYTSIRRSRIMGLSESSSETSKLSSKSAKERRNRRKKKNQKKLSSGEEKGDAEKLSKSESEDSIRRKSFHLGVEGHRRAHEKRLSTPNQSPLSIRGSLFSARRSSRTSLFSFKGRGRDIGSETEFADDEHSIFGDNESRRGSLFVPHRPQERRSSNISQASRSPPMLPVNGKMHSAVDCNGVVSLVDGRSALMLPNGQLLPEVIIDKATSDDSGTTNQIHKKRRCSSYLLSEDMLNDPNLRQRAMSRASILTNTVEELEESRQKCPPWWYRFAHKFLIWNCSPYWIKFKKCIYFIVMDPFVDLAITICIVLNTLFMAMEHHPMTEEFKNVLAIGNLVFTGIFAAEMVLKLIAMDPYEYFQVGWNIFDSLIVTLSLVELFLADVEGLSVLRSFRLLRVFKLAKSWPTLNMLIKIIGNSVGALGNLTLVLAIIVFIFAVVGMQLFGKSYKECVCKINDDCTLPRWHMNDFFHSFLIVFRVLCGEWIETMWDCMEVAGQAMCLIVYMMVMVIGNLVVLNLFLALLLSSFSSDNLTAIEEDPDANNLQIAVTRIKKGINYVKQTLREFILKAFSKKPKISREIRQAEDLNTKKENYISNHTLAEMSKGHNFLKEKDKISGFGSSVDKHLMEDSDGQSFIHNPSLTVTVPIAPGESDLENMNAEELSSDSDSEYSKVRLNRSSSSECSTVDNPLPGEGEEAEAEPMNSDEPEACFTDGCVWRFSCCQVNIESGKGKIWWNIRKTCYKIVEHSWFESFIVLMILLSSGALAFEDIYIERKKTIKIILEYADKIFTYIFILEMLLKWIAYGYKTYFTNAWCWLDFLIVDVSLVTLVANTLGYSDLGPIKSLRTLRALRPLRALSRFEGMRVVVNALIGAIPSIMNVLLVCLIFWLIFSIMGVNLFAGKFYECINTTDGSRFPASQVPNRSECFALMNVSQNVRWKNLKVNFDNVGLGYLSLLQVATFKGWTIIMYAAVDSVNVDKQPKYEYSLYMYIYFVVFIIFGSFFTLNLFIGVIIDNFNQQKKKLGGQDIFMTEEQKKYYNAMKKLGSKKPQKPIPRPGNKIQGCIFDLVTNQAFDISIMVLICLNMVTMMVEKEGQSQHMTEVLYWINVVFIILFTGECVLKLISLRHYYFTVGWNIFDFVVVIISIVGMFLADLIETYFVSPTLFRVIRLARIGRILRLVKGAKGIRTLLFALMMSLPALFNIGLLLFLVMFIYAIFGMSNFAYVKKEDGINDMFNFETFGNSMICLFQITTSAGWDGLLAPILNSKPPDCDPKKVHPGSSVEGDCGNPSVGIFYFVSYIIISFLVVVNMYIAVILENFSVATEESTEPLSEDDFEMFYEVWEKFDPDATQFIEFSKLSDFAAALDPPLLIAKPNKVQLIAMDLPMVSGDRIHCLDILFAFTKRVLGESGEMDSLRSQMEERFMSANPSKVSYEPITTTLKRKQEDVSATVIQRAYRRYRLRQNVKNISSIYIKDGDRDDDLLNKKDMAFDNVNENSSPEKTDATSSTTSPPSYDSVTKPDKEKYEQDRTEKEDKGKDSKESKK
Sequence of Cytochrome P450 3A4 (P08684 whole entry): as the sequence (P08684 whole entry) above
Sequence of hERG (KCNH2) (Q12809 whole entry): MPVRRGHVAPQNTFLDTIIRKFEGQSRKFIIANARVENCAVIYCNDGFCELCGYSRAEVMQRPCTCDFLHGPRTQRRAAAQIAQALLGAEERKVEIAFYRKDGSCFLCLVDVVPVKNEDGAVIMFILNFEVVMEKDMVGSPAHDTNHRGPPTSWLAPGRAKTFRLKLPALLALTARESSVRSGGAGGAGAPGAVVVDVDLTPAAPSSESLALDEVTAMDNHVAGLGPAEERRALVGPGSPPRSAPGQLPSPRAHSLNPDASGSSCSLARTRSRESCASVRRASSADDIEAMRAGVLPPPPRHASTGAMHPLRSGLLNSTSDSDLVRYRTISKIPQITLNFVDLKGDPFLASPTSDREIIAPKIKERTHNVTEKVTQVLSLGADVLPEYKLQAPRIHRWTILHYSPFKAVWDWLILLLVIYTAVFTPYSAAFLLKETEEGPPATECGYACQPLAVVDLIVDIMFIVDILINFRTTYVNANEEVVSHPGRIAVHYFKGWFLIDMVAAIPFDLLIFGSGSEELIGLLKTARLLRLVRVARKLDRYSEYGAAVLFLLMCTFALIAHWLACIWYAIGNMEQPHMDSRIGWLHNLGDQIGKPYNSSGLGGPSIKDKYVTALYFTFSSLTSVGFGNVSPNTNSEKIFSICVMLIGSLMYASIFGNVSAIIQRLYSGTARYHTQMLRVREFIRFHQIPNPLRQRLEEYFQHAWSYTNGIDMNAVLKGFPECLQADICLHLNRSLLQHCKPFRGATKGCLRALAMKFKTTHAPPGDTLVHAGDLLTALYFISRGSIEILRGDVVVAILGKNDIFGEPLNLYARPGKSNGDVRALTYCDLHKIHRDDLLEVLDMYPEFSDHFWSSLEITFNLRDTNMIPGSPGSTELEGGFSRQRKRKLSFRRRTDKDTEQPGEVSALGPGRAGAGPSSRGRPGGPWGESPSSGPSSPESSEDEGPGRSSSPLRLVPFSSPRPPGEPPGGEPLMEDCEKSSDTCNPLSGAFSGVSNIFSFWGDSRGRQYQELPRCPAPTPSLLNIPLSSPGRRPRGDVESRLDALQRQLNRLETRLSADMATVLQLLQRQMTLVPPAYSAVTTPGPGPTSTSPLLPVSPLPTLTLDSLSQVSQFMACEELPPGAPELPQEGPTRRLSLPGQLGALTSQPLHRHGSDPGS

Row | Compound | solubility [1] | inhibition at 10 µM (CYP3A4) | IC50 [2] | further results
1 | CCCCCN1C(=O)C2(COc3cc(OC)ccc32)c2ccccc21 (stereo unspecified) | < 5 µg/mL | 64% | 0.06 µM | –
2 | COc1cc2c(cc1OC)C1(CO2)C(=O)N(Cc2ccc(Cl)s2)c2ccccc21 (stereo unspecified) | 8 µg/mL (≈ 18.7 µM) | 75% | 0.7 µM | –
3 | COc1ccc2c(n1)C1(CO2)C(=O)N(Cc2ccc3c(c2)OCCO3)c2ccccc21 (stereo unspecified) | 5 µg/mL (≈ 12 µM) | 63% | 0.03 µM | –
4 | COc1ccc2c(n1)C1(CO2)C(=O)N(Cc2ccc(C(F)(F)F)o2)c2ccccc21 (stereo unspecified) | < 5 µg/mL | 26% | 0.13 µM | Activity (Rattus norvegicus [3]): 59%; clearance [4]: 66.7 mL/min/kg; bioavailability [5]: 3.2%; Vd [6]: 4.1 L/kg; half-life [7]: 1.9 h; Tmax [8]: 4 h; AUC(0-t) [9]: 244 ng·h/mL; Cmax [10]: 884 ng/mL; AUC(0-t) [11]: 77.1 ng·h/mL; Cmax [12]: 12.7 ng/mL; remaining at 2 h [13]: 49%; remaining at 2 h [14]: 29%; remaining at 2 h [15]: 18%; Papp A→B [16]: 9.1 ×10⁻⁶ cm/s; Papp B→A [17]: 8.8 ×10⁻⁶ cm/s; viability at 16 h [18]: > 96%; fraction unbound [19]: 0.05; inhibition at 3 h, 10 µM (hERG (KCNH2)): 7.5%; IC50 (Cytochrome P450 3A4): > 10 µM
5 | COc1ccc2c(c1)OCC21C(=O)N(C[C@H]2CCCO2)c2ccccc21 (stereo partly specified) | 45 µg/mL (≈ 128 µM) | 18% | 0.11 µM | –
6 | COc1ccc2c(n1)C1(CO2)C(=O)N(Cc2csc(C(C)C)n2)c2ccccc21 (stereo unspecified) | 5 µg/mL (≈ 12.3 µM) | 70% | 0.06 µM | –
7 | COc1cc2c(cc1F)OCC21C(=O)N(Cc2ccccn2)c2ccccc21 (stereo unspecified) | 36 µg/mL (≈ 95.6 µM) | 16% | 0.47 µM | –
8 | O=C1N(Cc2ccccn2)c2ccccc2C12COc1cc(F)c(F)cc12 (stereo unspecified) | 13 µg/mL (≈ 35.7 µM) | 30% | 0.27 µM | –
9 | COc1ccc2c(n1)C1(CO2)C(=O)N(Cc2ccc(Cl)s2)c2ccccc21 (stereo unspecified) | < 5 µg/mL | 73% | 0.06 µM | –
10 | CCCCCN1C(=O)C2(COc3cc4c(cc32)OCO4)c2ccccc21 (stereo unspecified) | – | 97% | – | –
11 | COc1ccc2c(n1)C1(CO2)C(=O)Nc2ccccc21 (stereo unspecified) | 52 µg/mL (≈ 194 µM) | 27% | > 1 µM | –
12 | COc1ccc2c(n1)C1(CO2)C(=O)N(Cc2ccccn2)c2ccccc21 (stereo unspecified) | < 5 µg/mL | 42% | 0.18 µM | –
13 | COc1ccc2c(c1)OCC21C(=O)N(CC2CCCCO2)c2ccccc21 (stereo unspecified) | 14 µg/mL (≈ 38.3 µM) | 35% | 0.01 µM | –
14 | COc1ccc2c(n1)C1(CO2)C(=O)N(Cc2ncccc2C(F)(F)F)c2ccccc21 (stereo unspecified) | < 5 µg/mL | 49% | > 0.25 µM | –
15 | COc1cc2c(cn1)OCC21C(=O)Nc2ccccc21 (stereo unspecified) | 52 µg/mL (≈ 194 µM) | 13% | 0.35 µM | –
16 | COc1cc2c(cc1C)C1(CO2)C(=O)N(Cc2ccccn2)c2ccccc21 (stereo unspecified) | 7 µg/mL (≈ 18.8 µM) | 61% | 1.15 µM | –
17 | COc1cc2c(cn1)OCC21C(=O)N(C[C@@H]2CCCO2)c2ccccc21 (stereo partly specified) | 61 µg/mL (≈ 173 µM) | 22% | 0.02 µM | Activity (Rattus norvegicus [20]): inactive; remaining at 0.5 h [21]: 8%; Activity (Rattus norvegicus [22]): inactive
18 | Cc1cc2c(cc1C)C1(CO2)C(=O)N(Cc2ccccn2)c2ccccc21 (stereo unspecified) | 6 µg/mL (≈ 16.8 µM) | 43% | 0.23 µM | –
19 | CCCCCN1C(=O)C2(COc3cc(F)c(F)cc32)c2ccccc21 (stereo unspecified) | < 5 µg/mL | 50% | 0.24 µM | –
20 | COc1cc2c(cn1)OCC21C(=O)N(C[C@H]2CCCO2)c2ccccc21 (stereo partly specified) | < 5 µg/mL | 14% | 0.05 µM | –
21 | COc1cc2c(cc1F)C1(CO2)C(=O)N(Cc2ccccn2)c2ccccc21 (stereo unspecified) | 15 µg/mL (≈ 39.9 µM) | 36% | 0.19 µM | –
22 | COc1cc2c(cn1)OCC21C(=O)N(CC2CCCCO2)c2ccccc21 (stereo unspecified) | 67 µg/mL (≈ 183 µM) | 22% | 0.1 µM | –
23 | COc1cc2c(cc1F)C1(CO2)C(=O)N(Cc2ccc(C(F)(F)F)o2)c2ccccc21 (stereo unspecified) | < 5 µg/mL | 69% | 0.43 µM | –
24 | N#Cc1cc2c(cc1F)OCC21C(=O)N(Cc2ncccc2C(F)(F)F)c2ccccc21 (stereo unspecified) | < 5 µg/mL | 10% | > 1 µM | –
25 | COc1cc2c(cn1)OCC21C(=O)N(Cc2ccc(C(F)(F)F)o2)c2ccccc21 (stereo unspecified) | < 5 µg/mL | 74% | 0.004 µM | –
26 | COCCOc1ccc2c(c1)OCC21C(=O)N(Cc2ccccn2)c2ccccc21 (stereo unspecified) | 46 µg/mL (≈ 114 µM) | 22% | 0.15 µM | –
27 | COc1ccc2c(c1)OCC21C(=O)N(Cc2ccccn2)c2ccccc21 (stereo unspecified) | 25 µg/mL (≈ 69.8 µM) | 29% | 0.008 µM | –
